Assay in all cases: Glasshouse assay for herbicidal activity (pre- and post-emergence), percentage phytotoxicity
What all share (assay type): in vivo

One assay relates to Lolium perenne (LOLPE). The note with it: Lolium perenne. In short, it runs like this:
(§1)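 Damage was rated visually as percent phytotoxicity, 100% meaning total kill, 20 days after pre-emergence application (made one day post-sowing) or 15 days after post-emergence application (made about 12 days post-sowing). Plants were grown under 16 h light, 65% humidity, warm species 24/18° C, cool 20/16° C.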

Assay [1] concerns Echinochloa crus-galli (ECHCG). The conditions noted are these: Echinochloa crus-galli. In short, it runs like this:
as §1

Assay [2] concerns Alopecurus myosuroides (ALOMY). The note with it: Alopecurus myosuroides. In short, it runs like this:
as §1

A further assay relates to Avena fatua (AVEFA). The note with it: Avena fatua. A digest of the protocol: as §1
Setting [3] is: post-emergence, 360 h, POST-emergence, rate 250 g/ha, visual score 15 DAA (100%=total damage, 0%=no damage), read-out: Post-emergence herbicidal activity (percentage phytotoxicity) LOLPE POST.
The mark [4] stands for this setting: pre-emergence, 480 h, PRE-emergence, rate 250 g/ha, visual score 20 DAA (100%=total damage, 0%=no damage), read-out: Pre-emergence herbicidal activity (percentage phytotoxicity) LOLPE PRE.
Where [5] appears, read: post-emergence, 360 h, POST-emergence, rate 250 g/ha, visual score 15 DAA (100%=total damage, 0%=no damage), read-out: Post-emergence herbicidal activity (percentage phytotoxicity) ECHCG POST.
Where [6] appears, read: pre-emergence, 480 h, PRE-emergence, rate 250 g/ha, visual score 20 DAA (100%=total damage, 0%=no damage), read-out: Pre-emergence herbicidal activity (percentage phytotoxicity) ECHCG PRE.
[7] abbreviates: post-emergence, 360 h, POST-emergence, rate 250 g/ha, visual score 15 DAA (100%=total damage, 0%=no damage), read-out: Post-emergence herbicidal activity (percentage phytotoxicity) ALOMY POST.
Setting [8] is: pre-emergence, 480 h, PRE-emergence, rate 250 g/ha, visual score 20 DAA (100%=total damage, 0%=no damage), read-out: Pre-emergence herbicidal activity (percentage phytotoxicity) ALOMY PRE.
The mark [9] stands for this setting: post-emergence, 360 h, POST-emergence, rate 250 g/ha, visual score 15 DAA (100%=total damage, 0%=no damage), read-out: Post-emergence herbicidal activity (percentage phytotoxicity) AVEFA POST.
Where [10] appears, read: pre-emergence, 480 h, PRE-emergence, rate 250 g/ha, visual score 20 DAA (100%=total damage, 0%=no damage), read-out: Pre-emergence herbicidal activity (percentage phytotoxicity) AVEFA PRE.
Setting [11] is: post-emergence, 360 h, Rate 250 g/ha, post-emergence, visual assessment 15 DAA, 100%=total damage, 0%=no damage, read-out: Post-emergence herbicidal activity (percentage phytotoxicity) LOLPE POST.
[12] abbreviates: pre-emergence, 480 h, Rate 250 g/ha, pre-emergence, visual assessment 20 DAA, 100%=total damage, 0%=no damage, read-out: Pre-emergence herbicidal activity (percentage phytotoxicity) LOLPE PRE.
[13] abbreviates: post-emergence, 360 h, Rate 250 g/ha, post-emergence, visual assessment 15 DAA, 100%=total damage, 0%=no damage, read-out: Post-emergence herbicidal activity (percentage phytotoxicity) ECHCG POST.
The mark [14] stands for this setting: pre-emergence, 480 h, Rate 250 g/ha, pre-emergence, visual assessment 20 DAA, 100%=total damage, 0%=no damage, read-out: Pre-emergence herbicidal activity (percentage phytotoxicity) ECHCG PRE.
Setting [15] is: post-emergence, 360 h, Rate 250 g/ha, post-emergence, visual assessment 15 DAA, 100%=total damage, 0%=no damage, read-out: Post-emergence herbicidal activity (percentage phytotoxicity) ALOMY POST.
The mark [16] stands for this setting: pre-emergence, 480 h, Rate 250 g/ha, pre-emergence, visual assessment 20 DAA, 100%=total damage, 0%=no damage, read-out: Pre-emergence herbicidal activity (percentage phytotoxicity) ALOMY PRE.
Where [17] appears, read: post-emergence, 360 h, Rate 250 g/ha, post-emergence, visual assessment 15 DAA, 100%=total damage, 0%=no damage, read-out: Post-emergence herbicidal activity (percentage phytotoxicity) AVEFA POST.
[18] abbreviates: pre-emergence, 480 h, Rate 250 g/ha, pre-emergence, visual assessment 20 DAA, 100%=total damage, 0%=no damage, read-out: Pre-emergence herbicidal activity (percentage phytotoxicity) AVEFA PRE.
[19] abbreviates: post-emergence, 360 h, 250 g/ha, post-emergence, 15 DAA, visual assessment (100%=total damage, 0%=no damage), read-out: Post-emergence herbicidal activity (percentage phytotoxicity) LOLPE POST.
[20] abbreviates: pre-emergence, 480 h, 250 g/ha, pre-emergence, 20 DAA, visual assessment (100%=total damage, 0%=no damage), read-out: Pre-emergence herbicidal activity (percentage phytotoxicity) LOLPE PRE.
The mark [21] stands for this setting: post-emergence, 360 h, 250 g/ha, post-emergence, 15 DAA, visual assessment (100%=total damage, 0%=no damage), read-out: Post-emergence herbicidal activity (percentage phytotoxicity) ECHCG POST.
[22] abbreviates: pre-emergence, 480 h, 250 g/ha, pre-emergence, 20 DAA, visual assessment (100%=total damage, 0%=no damage), read-out: Pre-emergence herbicidal activity (percentage phytotoxicity) ECHCG PRE.
Where [23] appears, read: post-emergence, 360 h, 250 g/ha, post-emergence, 15 DAA, visual assessment (100%=total damage, 0%=no damage), read-out: Post-emergence herbicidal activity (percentage phytotoxicity) ALOMY POST.
Where [24] appears, read: pre-emergence, 480 h, 250 g/ha, pre-emergence, 20 DAA, visual assessment (100%=total damage, 0%=no damage), read-out: Pre-emergence herbicidal activity (percentage phytotoxicity) ALOMY PRE.
Setting [25] is: post-emergence, 360 h, 250 g/ha, post-emergence, 15 DAA, visual assessment (100%=total damage, 0%=no damage), read-out: Post-emergence herbicidal activity (percentage phytotoxicity) AVEFA POST.
Where [26] appears, read: pre-emergence, 480 h, 250 g/ha, pre-emergence, 20 DAA, visual assessment (100%=total damage, 0%=no damage), read-out: Pre-emergence herbicidal activity (percentage phytotoxicity) AVEFA PRE.

This is an account of results in US10206394B2, “Herbicidal compounds” (Syngenta Participations AG, priority 2014, dated 2019).

Where two headings read alike, the source gives them in different places.

With `CC#Cc1cc(C)c(C2C(=O)CC(CC(=O)NCc3ccccc3)C2=O)c(C)c1` (stereo not shown) [Compound B185], the pest or weed control at 250 g/ha in the assay on Lolium perenne (LOLPE) (setting [3]) came out at 100%; in the assay with Lolium perenne (LOLPE) (setting [4]), 70%; in assay [1] (setting [5]) it was 100%; in assay [1] (setting [6]), 100%; in assay [2] (setting [7]), 100%; in assay [2] (setting [8]) it was 80%. Moreover, the pest or weed control at 250 g/ha stood at 100% in the assay with Avena fatua (AVEFA) (setting [9]) and 60% with Avena fatua (AVEFA) (setting [10]).

For the compound `Cc1cc(-c2ncc(F)cn2)cc(Cl)c1C1C(=O)CC(CC(=O)NC(C)(C)C)C1=O` (stereo not shown) [Compound B405], the pest or weed control at 250 g/ha is 100% in the assay on Lolium perenne (LOLPE) (setting [11]); 100% in the assay on Lolium perenne (LOLPE) (setting [12]); 100% in assay [1] (setting [13]); 100% in assay [1] (setting [14]); 100% in assay [2] (setting [15]); 90% in assay [2] (setting [16]). In addition, the pest or weed control at 250 g/ha in the assay on Avena fatua (AVEFA) (setting [17]) came to 100%; in the assay with Avena fatua (AVEFA) (setting [18]), 90%.

Turning to `COc1ccc(CNC(=O)CC2CC(=O)C(c3c(C)cc(-c4ncc(Cl)cn4)cc3C)C2=O)cc1` (stereo not shown) [Compound B356], the pest or weed control at 250 g/ha in the assay with Lolium perenne (LOLPE) (setting [11]) was found to be 100%; with Lolium perenne (LOLPE) (setting [12]), 80%; in assay [1] (setting [13]), 100%; in assay [1] (setting [14]) it was 100%; in assay [2] (setting [15]) it was 90%; in assay [2] (setting [16]) it was 60%. The pest or weed control at 250 g/ha was found to be 100% in the assay on Avena fatua (AVEFA) (setting [17]) and 60% with Avena fatua (AVEFA) (setting [18]).

Turning to `Cc1cc(-c2ncc(Cl)cc2F)cc(C)c1C1C(=O)CC(CC(=O)NCC(C)(C)C)C1=O` (stereo not shown) [Compound B178], the pest or weed control at 250 g/ha (with Lolium perenne (LOLPE) (setting [3]); in the assay on Lolium perenne (LOLPE) (setting [4]); in assay [1] (setting [5]); in assay [1] (setting [6]); in assay [2] (setting [7]); in assay [2] (setting [8])) was 100% each time. Besides, the pest or weed control at 250 g/ha with Avena fatua (AVEFA) (setting [9]) and in the assay on Avena fatua (AVEFA) (setting [10]) was 90% each time.

In the case of `CC#CC(C)(C)NC(=O)CC1CC(=O)C(c2c(C)cc(C)cc2C)C1=O` (stereo not shown) [Compound B35], the pest or weed control at 250 g/ha in the assay with Lolium perenne (LOLPE) (setting [19]) came to 70%; in the assay on Lolium perenne (LOLPE) (setting [20]), 80%; in assay [1] (setting [21]) it was 70%; in assay [1] (setting [22]), 80%; in assay [2] (setting [23]), 80%; in assay [2] (setting [24]) it was 90%. In addition, the pest or weed control at 250 g/ha in the assay on Avena fatua (AVEFA) (setting [25]) was determined as 70%; with Avena fatua (AVEFA) (setting [26]), 0%.

With `CCNC(=O)CC1CC(=O)C(c2c(C)cc(-c3ncc(Br)cn3)cc2C)C1=O` (stereo not shown) [Compound B282], the pest or weed control at 250 g/ha (in the assay on Lolium perenne (LOLPE) (setting [3]); in the assay on Lolium perenne (LOLPE) (setting [4]); in assay [1] (setting [5]); in assay [1] (setting [6]); in assay [2] (setting [7]); in assay [2] (setting [8])) was 100% in each case. Besides, the pest or weed control at 250 g/ha in the assay on Avena fatua (AVEFA) (setting [9]) and in the assay on Avena fatua (AVEFA) (setting [10]) was 100% in each case.

For `C#CCNC(=O)CC1CC(=O)C(c2c(C)cccc2CC)C1=O` (stereo not shown) [Compound B151], the pest or weed control at 250 g/ha was found to be 90% in the assay on Lolium perenne (LOLPE) (setting [19]); 90% in the assay on Lolium perenne (LOLPE) (setting [20]); 100% in assay [1] (setting [21]); 100% in assay [1] (setting [22]); 100% in assay [2] (setting [23]); 100% in assay [2] (setting [24]). Moreover, the pest or weed control at 250 g/ha was found to be 100% with Avena fatua (AVEFA) (setting [25]) and 90% with Avena fatua (AVEFA) (setting [26]).

On to `COCC(C)(C)NC(=O)CC1CC(=O)C(c2c(C)cc(-c3ccc(F)cn3)cc2C)C1=O` (stereo not shown) [Compound B389], for which the pest or weed control at 250 g/ha in the assay with Lolium perenne (LOLPE) (setting [11]) amounted to 90%; with Lolium perenne (LOLPE) (setting [12]) it was 100%; in assay [1] (setting [13]), 100%; in assay [1] (setting [14]) it was 100%; in assay [2] (setting [15]), 100%; in assay [2] (setting [16]) it was 90%. Moreover, the pest or weed control at 250 g/ha in the assay with Avena fatua (AVEFA) (setting [17]) was found to be 100%; in the assay with Avena fatua (AVEFA) (setting [18]), 90%.
